Data taken from patent US20230097992A1, “BIVALENT EGF FUSION TOXINS” (The Regents of the University of Colorado, a body corporate, priority 2020, published 2023).
Values joined by “and” are separate entries in the source; they are usually repeats but may differ in a detail not shown here. Equal entries are not always repeated.

What was measured:
[1] = test system: 14 EGFR+ HNSCC cells lines; experiment: Flow cytometry binding, all 14 EGFR+ HNSCC cell lines together; parameters: species or system human; details: mean over the 14 EGFR+ HNSCC cell lines
[2] = test system: HNSCC Cal27 subcutaneous xenografts; experiment: Flank-xenograft solid tumor-bearing NSG mouse model; format: in vivo, NSG mice; details: Subcutaneous xenograft model; fusion toxin or DT390 50 μg/kg IP, erlotinib 20 mg/kg gavage, once daily for 10 days from day 4
Description: FIGS. 6A-6D presents the data from in vivo efficacy analysis of the human EGF fusion toxins against subcutaneous xenografts in NSG mice from two animal studies. FIG. 6A depicts the survival curve for NSG mice injected with Cal27 cells. […] FIGS. 6B-D depict tumor volume and weight data from the second study performed with a second cohort of NSG mice. […] Mice were euthanized on day 14 after tumor cell injection, when the first mouse in the DT390 group reached the end point. FIG. 6B: Tumor volumes were measured periodically, and the growth kinetics of the four groups were plotted. FIG. 6B depicts the tumor growth kinetics for a period of 14 days. FIG. 6C presents a bar graph representing the tumor weights at day 14. FIG. 6D depicts images of harvested tumors on day 14. Scale bar: 1 cm. FIGS. 6A-6C: *P<0.05; **P<0.01; ***P<0.001; ****P<0.0001; ns: not significant. The P-values for the survival curves in FIG. 6A were calculated using the Mantel-Cox log-rank test and that for the comparisons in FIGS. 6B and C were calculated using the two-tailed Student t-test (GraphPad Prism 9.0.0).
(§1) HNSCC tumor cells were injected via the following routes: 1) Flank-xenograft solid tumor model: eight million human HNSCC Cal27 tumor cells were subcutaneously injected into the right flank at day 0. The tumor-bearing mice were randomly divided into the four experimental groups when the tumors were palpable at day 3. The tumor volume was measured using digital vernier calipers every 3 days and calculated according to the formula: volume (mm^3)=(length×width×width)/2. 2) Tongue-orthotopic solid tumor model: eight million human HNSCC Cal27 tumor cells in 50 μl DMEM were injected into the tongue at day 0 following isoflurane anesthesia and the tumor-bearing mice were randomly divided into the planned four experimental groups at day 3. 3) Experimental metastasis model: one million human HNSCC Cal27 tumor cells in 200 μl DMEM were intravenously injected at day 0 via tail vein and the tumor-bearing mice were randomly divided into the four experimental groups at day 3.
(§2) Mono-EGF-IT (mEGF-IT), bEGF-IT, or DT390 was intraperitoneally injected (IP) starting at day 4 at 50 μg/kg, once daily for 10 consecutive days. […] The injected animals were observed daily for signs and symptoms of illness and scored at least twice weekly based on the parameters as previously reported (Peraino et al. (2013), J. Immunol. Methods 398-399, 33-43, which is hereby incorporated by reference in its entirety; Wang et al., 2015). The animals were humanely euthanized when the score exceeded the limit or the animal lost more than 15% of its pre-injection body weight. In addition, to assess whether the fusion toxins are toxic to the animals, NSG mice injected with the fusion toxins only were also included as control.
In vivo efficacy of the mEGF-IT and bEGF-IT against HNSCC was assessed using three immunodeficient tumor-bearing NSG mouse models. The first in vivo efficacy model was a flank-xenograft solid tumor-bearing NSG mouse model. Eight million Cal27 tumor cells were injected subcutaneously (SQ) into the right flank at day 0. The EGF fusion toxins were injected intraperitoneally (IP) starting on day 4 at 50 μg/kg daily for 10 consecutive days. […] The reduction of the tumor volumes, weights and sizes (FIGS. 6B-6D) were all consistent with the median survival prolongation.

[3] = test system: HNSCC Cal27 tongue-orthotopic tumors; experiment: Tongue-orthotopic tumor-bearing NSG mouse model; format: in vivo, NSG mice; details: Tongue orthotopic model; fusion toxin or DT390 50 μg/kg IP, erlotinib 20 mg/kg gavage, once daily for 10 days from day 4
Experimental: FIGS. 7A-7C presents the data from two animal studies of in vivo efficacy analysis of the human EGF fusion toxins against tongue squamous cell carcinomas (SCCs) in NSG mice. FIG. 7A presents the data from in vivo efficacy analysis of the human EGF fusion toxins using human EGFR-positive HNSCC Cal27 tongue-orthotopic tumor-bearing NSG mouse model. Eight million human EGFR-positive HNSCC Cal27 cells were injected into the tongue on day 0. Mice were injected intraperitoneally (IP) with the EGF fusion toxin or DT390 at 50 μg/kg, starting on day 4, once daily for 10 consecutive days. […] The schedule of the fusion toxin and tumor cell injection is pictured in the schematic below the survival curve. The vertical arrows indicate the days on which the tumor cells or the fusion toxins were injected. *P<0.05; **P<0.01; ***P<0.001; ****P<0.0001; ns: not significant.
FIG. 7B presents the data from a further in vivo efficacy analysis of the human EGF fusion toxins. […] The mice were euthanized on day 8 after tumor cell injection when the first mouse in the DT390 group reached the end point. The photograph depicts tongue squamous cell carcinomas (SCCs) (circled by the black dotted lines). Scale bar: 1 cm. FIG. 7C presents the FIG. 7B tumor volume comparison of the treatment groups. *P<0.05; **P<0.01
as §1, §2
To assess the in vivo efficacy of the human EGF fusion toxins to the xenograft tumors in the head and neck area, a tongue-orthotopic tumor-bearing NSG mouse model was used as a second efficacy model. Eight million HNSCC Cal27 cells were injected into the tongue at day 0. The EGF fusion toxins were injected intraperitoneally (IP) starting on day 4 at 50 μg/kg daily for 10 consecutive days. Since the resulting tongue-orthotopic tumors severely affected the animal's eating and drinking, animals were euthanized earlier. Therefore, the median survival prolongation was not as impressive as that observed in the flank-xenograft solid tumor-bearing NSG mouse model. […] To further characterize the effect of the EGF fusion toxins on tumor volume, the orthotopic tongue SCC model study was repeated, and the mice were euthanized 8 days after tumor cell inoculation.

[4] = test system: HNSCC Cal27 cells injected intravenously (lung metastases); experiment: Experimental lung metastasis NSG mouse model; format: in vivo, NSG mice; details: for Median survival time: Lung metastasis model, fusion toxin or DT390 50 μg/kg IP, erlotinib 20 mg/kg gavage, once daily for 10 days from day 4
Experimental: FIG. 8A-C presents data from in vivo efficacy analysis of the human EGF fusion toxins using an experimental lung metastasis NSG mouse model. FIG. 8A presents data from a first animal study for survival curve analysis. NSG mice were IV injected with one million human EGFR^+ HNSCC Cal27 cells on day 0. Mice were injected intraperitoneally (IP) with the EGF fusion toxin or DT390 at 50 μg/kg, once daily for 10 consecutive days starting on day 4 after the tumor cell injection. […] The schedule of the fusion toxin and tumor cell injection is pictured in the schematic below the survival curve. The vertical arrows indicate the days on which the tumor cells or the fusion toxins were injected. *P<0.05; **P<0.01; ***P<0.001; ****P<0.0001. The P-values for the survival curves were calculated using the Mantel-Cox log-rank test (GraphPad Prism9.0).
FIGS. 8B and C present data from a second animal study for a pathology analysis. […] The mice were euthanized on day 10 after tumor cell injection when the first mouse in the DT390 group reached the end point. FIG. 8B presents H&E pictures of lung metastases. Metastases are indicated in the upper panels by black arrowheads. Scale bar: 500 μm. The lower panels are higher magnification pictures of the area in black rectangles in the upper panels. […] Error bars indicate standard deviation (SD).
as §1, §2
The third in vivo efficacy model was an experimental metastasis model. One million of HNSCC Cal27 tumor cells were intravenously injected via the tail vein of NSG mice at day 0. The EGF fusion toxins were injected intraperitoneally (IP) starting on day 4 at 50 μg/kg daily for 10 consecutive days. […] To further assess the effects of the fusion toxins on metastasis, the experimental metastasis study was repeated with a second cohort of NSG mice, and all mice were euthanized 10 days after tumor cell inoculation, when the first mouse in the DT390 group reached the end point. The data are depicted in FIGS. 8B and C.

NSG mice = experiment: In vivo off-target toxicity in NSG mice
Description: FIGS. 12A-C presents representative images of necropsy results for NSG mice treated with mono-EGF-IT or bi-EGF-IT without tumor cell injection. Mice were euthanized on day 13 after the first injection of the fusion toxins. The images show representative gross changes observed in the ear (FIG. 12A), liver (FIG. 12C) and gastrointestinal tract of a representative NSG mouse treated with mono-EGF-IT compared to a representative NSG mouse treated with bi-EGF-IT.
as §2
The main side effects of targeting EGFR are caused by off-target effects, because EGFR is expressed in many healthy tissues, include skin, liver, and gastrointestinal tract (Widakowich et al., (2007), Oncologist, 12, 1443-1455). […] To further assess these toxic effects, another in vivo toxicity study in non-tumor-bearing mice was performed. NSG mice were treated with mono-EGF-IT or bi-EGF-IT, without tumor cell injection.

[5] = non-tumor-bearing NSG mice, 13 days after the first injection

Mono-EGF IT: DT390 joined by G4S to one human EGF domain, C-terminal 6×His tag; SEQ ID NO: 15
Kd [1]: 12.2 nM | Median survival time [2]: 14 days | Median survival time [3]: 11 days | Median survival time [4]: 32 days | number of metastases in the lungs ([4]; second cohort, euthanized 10 days after tumor cell inoculation): reduced compared with the DT390-negative control group | adverse effects observed in treated mice (NSG mice; mice of the efficacy studies): generally unhealthy and lethargic and developed skin rashes | general condition and skin (NSG mice; non-tumor-bearing NSG mice): generally unhealthy and lethargic with skin rashes | necropsy, gastrointestinal tract (NSG mice; [5]): mildly pale with scant ingesta in the stomach or cecum | necropsy, liver (NSG mice; [5]): diffuse pale livers with moderate reticular patterns

DT390
Median survival time [2]: 14 days and 13 days | Median survival time [3]: 10 days | Median survival time [4]: 8.5 days
